Laboratory results reported in US11925645B2, “Enhanced caffeinated beverage composition” (Ortho-Nutra, LLC, priority 2013, dated 2024).

Key:
A1 and A2A AR = details: rats; cited from earlier work
[1] = Acute randomized placebo-controlled crossover trial of 200 mg TeaCrine: anchored VAS questionnaires; assay type: in vivo, human
Experimental: In order to examine the beneficial experiential effects and psychometric properties of theacrine supplementation in healthy subjects, explore optimal dosing and potential cumulative effects in a healthy human cohort with a 7-day, sub-acute repetitive dosing protocol, and acquire preliminary data on various biomarkers of safety and tolerability, an experiment was performed. […] A subset of 6 subjects underwent a separate 7-day, open-label, repeated dose study comparing 100 mg, 200 mg and 400 mg of TC. The experiment was a randomized, placebo-controlled, double-blind, within-subject crossover clinical trial (for N=15 study). A further subset study was open-label, sub-acute (7-day), repetitive dosing trial (for N=6 subset). Six (6) subjects provided written and dated informed consent to participate in the 7-day repetitive dosing study between Dec. 15, 2012 and Feb. 21, 2013. A separate cohort of fifteen (15) subjects provided written and dated informed consent for the acute dose, placebo-controlled, crossover clinical trial. All subjects were in good health as determined by physical examination and medical history, between the ages of 18 and 45 (inclusive). […] Subjects were willing and able to comply with the experimental and supplement protocol. […] Physical activity levels and health history were determined using standardized questionnaires. Heart rate and blood pressure were measured using an Omron HEM-780. Standing height was determined using a wall-mounted stadiometer. […] Medical Scale. A 100 mm anchored VAS questionnaire for energy, fatigue, and concentration was distributed at each acute lab session; additional VAS questionnaires were distributed for the daily assessment over a 6-hour period during the 7-day subset study. Quest Diagnostics (Pittsburgh, Pa.) was utilized to transport and analyze all blood samples. […] Statistical Analyses for Example 1. Descriptive statistics (mean, median, SD, 95% CIs) were used to quantify subjects physical characteristics. RM ANOVA, as well analyses of co-variance (ANCOVA), using baseline scores as the co-variate (respectively), were used to analyze between trial differences. Alpha was set to 0.05 (P≤0.05) for statistical significance, and <0.10 for trends. Effect sizes were also calculated. Upon arrival for the first testing session, subjects were randomly assigned to receive their respective supplement/placebo. Each subject ingested the sponsor recommended dosage of their respective supplement (1 capsule prior to schedule of assessments). Supplements were prepared in capsule form and packaged in coded generic containers for double-blind administration.

[2] = 7-day open-label repeated dose study of TC (N=6): VAS subjective measures; assay type: in vivo, human; details: 200 mg dose of theacrine over 7 days
Experimental: A subset of 6 subjects underwent a separate 7-day, open-label, repeated dose study comparing 100 mg, 200 mg and 400 mg of TC. The experiment was a randomized, placebo-controlled, double-blind, within-subject crossover clinical trial (for N=15 study). A further subset study was open-label, sub-acute (7-day), repetitive dosing trial (for N=6 subset). Six (6) subjects provided written and dated informed consent to participate in the 7-day repetitive dosing study between Dec. 15, 2012 and Feb. 21, 2013. A separate cohort of fifteen (15) subjects provided written and dated informed consent for the acute dose, placebo-controlled, crossover clinical trial. All subjects were in good health as determined by physical examination and medical history, between the ages of 18 and 45 (inclusive). […] Subjects were willing and able to comply with the experimental and supplement protocol. Physical activity levels and health history were determined using standardized questionnaires. Heart rate and blood pressure were measured using an Omron HEM-780. Standing height was determined using a wall-mounted stadiometer. […] Medical Scale. A 100 mm anchored VAS questionnaire for energy, fatigue, and concentration was distributed at each acute lab session; additional VAS questionnaires were distributed for the daily assessment over a 6-hour period during the 7-day subset study. Quest Diagnostics (Pittsburgh, Pa.) was utilized to transport and analyze all blood samples.

[3] = tested on: biomarkers of inflammation; assay: Biomarkers of inflammation in humans; assay type: in vivo, human; details: acute inflammatory stressors or chronic consumption
Description: Theacrine itself can reduce biomarkers of inflammation in humans in response to acute inflammatory stressors (e.g., intense exercise) or chronic consumption. Theacrine is shown to decrease C-reactive protein (CRP), Erythrocyte sedimentation rate (ESR), interleukin-6 (IL-6) and TNF-alpha.

## Cn1c(=O)c2c(n(C)c1=O)n(C)c(=O)n2C [Theacrine, 1,3,7,9-tetramethylpurine-2,6,8-trione]
A1 and A2A AR
  theacrine stimulating activity under a cocktail containing both A1 and A2A AR antagonists: blocks
[1]; 200 mg dose of TC, single dose, trend, vs. PLA −[…], P=0.07
  concentration (VAS): +2.4%
[1]; 200 mg dose of TC, single dose, vs. PLA +5.8%, P=0.04
  fatigue (VAS): −6.7%
[1]; 200 mg dose of TC, single dose, vs. PLA −5.7%, P=0.049
  energy (VAS): +8.6%
[1]; 1, 2 and 3 hours after administration, vs placebo
  perceived energy on VAS (FIG. 2): higher levels of energy
[1]; 60 minutes after administration, vs placebo
  perceived fatigue on VAS (FIG. 3): lower levels of fatigue
[2]
  anxiety (FIG. 6): decreased substantially
  concentration (FIG. 7): increased substantially
  energy (FIG. 7): increased substantially
  fatigue (FIG. 6): decreased substantially
  libido (FIG. 6): increased substantially
  motivation to exercise (FIG. 7): increased substantially
[3]
  C-reactive protein (CRP): decrease
  Erythrocyte sedimentation rate (ESR): decrease
  TNF-alpha: decrease
  interleukin-6 (IL-6): decrease
